Assay results: publication PMC9172550, “Novel derivatives of eugenol as potent anti-inflammatory agents via PPARγ agonism: rational design, synthesis, analysis, PPARγ protein binding assay and computational studies” (RSC Advances, 2022)

Tests used:
egg albumin = egg albumin (Gallus gallus, UniProt P01012); assay: Albumin denaturation assay (in vitro anti-inflammatory activity); parameters: species or system hen; conditions: means ± SD, n = 3, read-out: percentage inhibition of albumin denaturation
Experimental: In this assay egg albumin is used as protein. Protein denaturation is achieved by keeping the reaction mixture at 70 °C in a water bath for 10 minutes.
The reaction mixture containing 0.2 ml of egg albumin (from fresh hen's eggs), 2.8 ml of phosphate-buffered saline (pH 6.4), and were mixed with 2 ml of the synthesized compounds in varying concentrations. Then the samples were incubated at 37 °C for 20 min and then heated to 70 °C for 20 min. After cooling the samples, the turbidity was measured spectrophotometrically at 660 nm. […] The following formula was used to calculate the percentage inhibition of protein denaturation. [drawing 5]

PPARγ LBD protein = target: T1, PPARγ LBD protein (Homo sapiens, UniProt P37231); assay: LanthaScreen TR-FRET competitive ligand displacement (PPARγ protein binding) assay; conditions: for IC50: TR-FRET PPARγ binding, tracer displacement
T1 construct: 1 nM 6xHis-PPAR LBD protein
T1 sequence (P37231 238-503 limits assumed): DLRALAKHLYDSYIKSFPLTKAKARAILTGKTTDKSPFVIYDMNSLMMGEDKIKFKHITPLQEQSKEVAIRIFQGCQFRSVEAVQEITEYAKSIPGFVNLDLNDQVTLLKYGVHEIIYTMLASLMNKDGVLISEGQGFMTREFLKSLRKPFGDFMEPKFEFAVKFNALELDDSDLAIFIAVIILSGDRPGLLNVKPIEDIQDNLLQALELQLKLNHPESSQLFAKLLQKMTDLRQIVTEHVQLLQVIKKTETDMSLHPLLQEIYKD
Experimental: Based on time-resolved fluorescence resonance energy transfer (TR-FRET), the nuclear receptor competitive binding assay was utilized to identify PPARγ ligands. […] The tracer is displaced from PPARγ-LBD by a chemical under test, resulting in a decrease in the FRET signal and a low TR-FRET ratio (Fig. 8).
We performed a time-resolved fluorescence resonance energy transfer (TR-FRET) assay using a black flat bottom 384-well plate and a buffer containing 20 mM potassium phosphate (pH 7.4), 0.5 mM EDTA, 50 mM KCl, and 0.01% Tween-20, 5 mM TCEP. For the TR-FRET coregulator interaction assay, each well contained 400 nM FITC-labeled TRAP220 or NCoR1 peptides, 1 nM LanthaScreen Elite Tb-anti-His Antibody, 4 nM 6xHis-PPARγ LBD protein and 400 nM peptide in TR-FRET buffer in 22.5 μL total volume per well. Each well ([…] per well) included 1 nM 6xHis-PPAR LBD protein, 1 nM LanthaScreen Elite Tb-anti-His Antibody, and 5 nM Fluormone Pan-PPAR Green tracer ligand in TR-FRET buffer for the ligand displacement experiment. Ligand stocks were made by serial dilution in DMSO, then added to wells in triplicate to a final DMSO concentration of 1%, then incubated at room temperature for 1 hour, and read using a BioTek Synergy Neo multimode plate reader. The Tb donor was stimulated at 340 nm, its fluorescence emission was measured at 490 nm, and the FITC emission of the acceptor was detected at 520 nm. The signal at 520 nm/490 nm was used to compute the TR-FRET ratio.[37,38]

egg albumin, sequence (P01012 2-386): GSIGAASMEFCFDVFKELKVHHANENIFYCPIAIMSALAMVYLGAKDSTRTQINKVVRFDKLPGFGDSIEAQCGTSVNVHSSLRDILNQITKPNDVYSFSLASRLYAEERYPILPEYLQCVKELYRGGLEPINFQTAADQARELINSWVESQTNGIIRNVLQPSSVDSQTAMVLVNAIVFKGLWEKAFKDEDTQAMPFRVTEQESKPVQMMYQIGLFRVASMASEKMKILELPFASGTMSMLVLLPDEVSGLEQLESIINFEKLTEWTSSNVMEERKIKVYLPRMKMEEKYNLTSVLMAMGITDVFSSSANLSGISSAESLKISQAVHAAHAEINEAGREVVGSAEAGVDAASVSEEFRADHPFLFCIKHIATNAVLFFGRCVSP

Row | SMILES | inhibition at 6.25 µM (egg albumin) [%] | inhibition at 12.5 µM (egg albumin) [%] | inhibition at 25 µM (egg albumin) [%] | inhibition at 50 µM (egg albumin) [%] | inhibition at 150 µM (egg albumin) [%] | inhibition at 200 µM (egg albumin) [%] | inhibition at 400 µM (egg albumin) [%] | IC50 (PPARγ LBD protein) [µM] | Raw Data (RLU) (PPARγ LBD protein; TR-FRET signal at 0.0000512 µM) | Raw Data - Background (RLU) (PPARγ LBD protein; TR-FRET signal at 0.0000512 µM) | Raw Data (RLU) (PPARγ LBD protein; TR-FRET signal at 0.000256 µM) | Raw Data - Background (RLU) (PPARγ LBD protein; TR-FRET signal at 0.000256 µM) | Raw Data (RLU) (PPARγ LBD protein; TR-FRET signal at 0.00128 µM) | Raw Data - Background (RLU) (PPARγ LBD protein; TR-FRET signal at 0.00128 µM) | Raw Data (RLU) (PPARγ LBD protein; TR-FRET signal at 0.0064 µM) | Raw Data - Background (RLU) (PPARγ LBD protein; TR-FRET signal at 0.0064 µM) | Raw Data (RLU) (PPARγ LBD protein; TR-FRET signal at 0.032 µM) | Raw Data - Background (RLU) (PPARγ LBD protein; TR-FRET signal at 0.032 µM) | Raw Data (RLU) (PPARγ LBD protein; TR-FRET signal at 0.16 µM) | Raw Data - Background (RLU) (PPARγ LBD protein; TR-FRET signal at 0.16 µM) | also measured
1 | C=CCc1ccc(OCC(=O)Nc2ccc(C)cc2)c(OC)c1 [Compound 1A, 2-(4-Allyl-2-methoxyphenoxy)-N-p-tolylacetamide] | 2.42 ± 0.165 | 5.7 ± 3.19 | 8.72 ± 3.93 | 13.3 ± 7.51 | 17.2 ± 8.71 | 25.4 ± 2.87 | 32 ± 2.95 | 13.5 | 2.07 | 1.84 | 2.10 | 1.862 | 2.02 | 1.787 | 1.92 | 1.688 | 2.00 | 1.76 | 1.95 | 1.716 | Raw Data (RLU) (PPARγ LBD protein; TR-FRET signal at 0.8 µM): 1.99 RLU; Raw Data - Background (RLU) (PPARγ LBD protein; TR-FRET signal at 0.8 µM): 1.754 RLU; Raw Data (RLU) (PPARγ LBD protein; TR-FRET signal at 4 µM): 1.57 RLU; Raw Data - Background (RLU) (PPARγ LBD protein; TR-FRET signal at 4 µM): 1.332 RLU; Raw Data (RLU) (PPARγ LBD protein; TR-FRET signal at 20 µM): 1.07 RLU; Raw Data - Background (RLU) (PPARγ LBD protein; TR-FRET signal at 20 µM): 0.8399 RLU; Raw Data (RLU) (PPARγ LBD protein; TR-FRET signal at 100 µM): 0.54 RLU; Raw Data - Background (RLU) (PPARγ LBD protein; TR-FRET signal at 100 µM): 0.3006 RLU
2 | C=CCc1ccc(OCC(=O)Nc2ccc(OC)cc2)c(OC)c1 [Compound 1B, 2-(4-Allyl-2-methoxyphenoxy)-N-(4-methoxyphenyl) acetamide] | 1.71 ± 0.344 | 4.57 ± 0.54 | 6.82 ± 1.37 | 8.59 ± 0.205 | 9.45 ± 0.681 | 16.4 ± 5.09 | 30.7 ± 4.44 | 41.5 | 2.024 | 1.789 | 1.990 | 1.755 | 1.965 | 1.73 | 1.913 | 1.678 | 1.913 | 1.678 | 1.960 | 1.724 | Raw Data (RLU) (PPARγ LBD protein; TR-FRET signal at 0.8 µM): 2.002 RLU; Raw Data - Background (RLU) (PPARγ LBD protein; TR-FRET signal at 0.8 µM): 1.767 RLU; Raw Data (RLU) (PPARγ LBD protein; TR-FRET signal at 4 µM): 1.855 RLU; Raw Data - Background (RLU) (PPARγ LBD protein; TR-FRET signal at 4 µM): 1.619 RLU; Raw Data (RLU) (PPARγ LBD protein; TR-FRET signal at 20 µM): 1.280 RLU; Raw Data - Background (RLU) (PPARγ LBD protein; TR-FRET signal at 20 µM): 1.045 RLU; Raw Data (RLU) (PPARγ LBD protein; TR-FRET signal at 100 µM): 0.534 RLU; Raw Data - Background (RLU) (PPARγ LBD protein; TR-FRET signal at 100 µM): 0.2989 RLU
3 | C=CCc1ccc(OCC(=O)Nc2ccc(Cl)cc2)c(OC)c1 [Compound 1C, 2-(4-Allyl-2-methoxyphenoxy)-N-(4-chlorophenyl) acetamide] | 5.23 ± 4.12 | 9.14 ± 0.615 | 15.7 ± 1.59 | 22.6 ± 1.98 | 38.5 ± 1.1 | 48.1 ± 1.14 | 56.9 ± 1.8 | 10.7 | 2.069 | 1.834 | 1.896 | 1.660 | 1.907 | 1.672 | 1.934 | 1.699 | 1.989 | 1.754 | 1.921 | 1.686 | Raw Data (RLU) (PPARγ LBD protein; TR-FRET signal at 0.8 µM): 1.922 RLU; Raw Data - Background (RLU) (PPARγ LBD protein; TR-FRET signal at 0.8 µM): 1.687 RLU; Raw Data (RLU) (PPARγ LBD protein; TR-FRET signal at 4 µM): 1.761 RLU; Raw Data - Background (RLU) (PPARγ LBD protein; TR-FRET signal at 4 µM): 1.526 RLU; Raw Data (RLU) (PPARγ LBD protein; TR-FRET signal at 20 µM): 1.058 RLU; Raw Data - Background (RLU) (PPARγ LBD protein; TR-FRET signal at 20 µM): 0.823 RLU; Raw Data (RLU) (PPARγ LBD protein; TR-FRET signal at 100 µM): 0.951 RLU; Raw Data - Background (RLU) (PPARγ LBD protein; TR-FRET signal at 100 µM): 0.716 RLU
4 | C=CCc1ccc(OCC(=O)Nc2cccc(C)c2)c(OC)c1 [Compound 1D, 2-(4-Allyl-2-methoxyphenoxy)-N-m-tolylacetamide] | 2.66 ± 1.12 | 7.88 ± 3.8 | 11.1 ± 3.65 | 15.9 ± 7.79 | 22.4 ± 5.43 | 29.6 ± 3.94 | 36.7 ± 4.77 | 15 | 1.92 | 1.69 | 1.95 | 1.72 | 1.85 | 1.61 | 2.07 | 1.83 | 1.93 | 1.70 | 1.87 | 1.64 | Raw Data (RLU) (PPARγ LBD protein; TR-FRET signal at 0.8 µM): 1.91 RLU; Raw Data - Background (RLU) (PPARγ LBD protein; TR-FRET signal at 0.8 µM): 1.68 RLU; Raw Data (RLU) (PPARγ LBD protein; TR-FRET signal at 4 µM): 1.91 RLU; Raw Data - Background (RLU) (PPARγ LBD protein; TR-FRET signal at 4 µM): 1.67 RLU; Raw Data (RLU) (PPARγ LBD protein; TR-FRET signal at 20 µM): 1.91 RLU; Raw Data - Background (RLU) (PPARγ LBD protein; TR-FRET signal at 20 µM): 1.67 RLU; Raw Data (RLU) (PPARγ LBD protein; TR-FRET signal at 100 µM): 1.40 RLU; Raw Data - Background (RLU) (PPARγ LBD protein; TR-FRET signal at 100 µM): 1.17 RLU
5 | O=C(O)Cc1ccccc1Nc1c(Cl)cccc1Cl [Standard diclofenac, Diclofenac sodium, reference compound] | 10 ± 0.463 | 15.7 ± 0.429 | 27 ± 0.336 | 38.5 ± 0.468 | 48.3 ± 3.14 | 60.9 ± 0.223 | 66.29 ± 0.375 | – | – | – | – | – | – | – | – | – | – | – | – | – | –
